“Also recorded” adds a separate entry of the source.
What was measured:
[1] = test system: PTZ-induced seizures in zebrafish larvae; assay: Zebrafish PTZ seizure model, behavioral analysis; format: in vivo, Danio rerio; conditions: at MTC, 2 or 18 hours incubation (not specified per compound)
Method: To investigate whether the isolated compounds display antiseizure activity, they were tested in the zebrafish PTZ seizure model after both an acute (2 hours) and chronic (18 hours) incubation time at their maximum tolerated concentration (MTC) (Table 1, FIG. 1).
(§1) In case no MTC was reached, 100 μg/mL was used as the test concentration. In line with studies previously reported [Baraban et al. (2005) Neurosci 131, 759-768; Afrikanova et al. (2013) PLoS One 8, e54166], addition of the GABAA-receptor antagonist PTZ to the swimming water of 7 days post-fertilization (dpf) zebrafish larvae strongly elevated larval locomotion (p≤0.001) (FIGS. 2 and 3) as a result of induced seizures (or seizure-like behavior) that were recognized as typical high-speed swimming, whirlpool-like circling, clonus-like seizures, and loss of posture, as previously described in Baraban et al cited above.
Experimental procedure was described in Afrikanova et al.(2013) PLoS One 8, e54166 and Orellana-Paucar et al. (2012) Epilepsy Behav 24, 14-22. In brief, a single 7 dpf larva (in case of 2 hours incubation) or 6 dpf larva (in case of 18 hours incubation) was placed in each well of a 96-well plate and treated with either VHC (1% DMSO) or compound (1% DMSO) in a 100 μL volume. Larvae were incubated in dark for 2 or 18 hours at 28° C., whereafter 100 μL of either VHC (embryo medium) or 40 mM PTZ (dissolved in embryo medium, 20 mM working concentration) was added to each well. Next, within 5 min the 96-well plate was placed in an automated tracking device (ZebraBox Viewpoint, France) and larval behavior was video recorded for 30 min. The complete procedure was performed in dark conditions using infrared light. Total locomotor activity was recorded by ZebraLab software (Viewpoint, France) and expressed in actinteg units, which is the sum of pixel changes detected during the defined time interval (5 min). Larval behavior was depicted as mean actinteg units/5 min during the 30 min recording period and over 5 min time intervals. Data are expressed as mean±SD or as mean ±SEM when the means of independent experiments were pooled.

zebrafish larvae = assay: Zebrafish toxicity evaluation (maximum tolerated concentration); format: in vivo, Danio rerio; conditions: up to 18 hours exposure, 100 μg/mL used where no MTC was reached
Method: as §1
Maximum tolerated concentration (MTC) was determined prior to further experiments and used as the highest test concentration. MTC was investigated by exposing 12 larvae of 6 days post-fertilization (dpf) to a range of concentrations in a 100 μL volume during 18 hours. The following parameters were investigated after 2 and 18 hours of exposure: touch response, morphology, posture, edema, signs of necrosis, swim bladder, and heartbeat. […] In case MTC was not reached, 100 μg/mL was used as the highest test concentration.

NMRI mice = assay: Mouse 6-Hz (44 mA) psychomotor seizure model; format: in vivo
Description: Although the zebrafish model has a high degree of genetic, physiological and pharmacological conservation^13, it is more distinct from humans than mammals. Therefore, we were interested to see if the observed antiseizure properties of azaspirofuran A and pseurotin A2 would translate to a rodent model. The mouse 6-Hz (44 mA) psychomotor seizure model was chosen, because it can detect compounds with novel antiseizure mechanisms and with potential against drug-resistant seizures [Barton et al. (2001) Epilepsy Res 47, 217-227; Wilcox et al. (2013) Epilepsia 54 S4, 24-34]. In this model drug-resistant focal impaired awareness seizures [Fisher et al. (2017) Epilepsia 58, 531-542], previously referred to as complex partial or psychomotor seizures [Holcomb and Dean (2011) Psychomotor Seizures, In Encyclopedia of Child Behavior and Development (Goldstein, S., and Naglieri, J. A., Eds.), pp 1191-1192, Springer US, Boston, Mass.], are induced by low frequency, long duration corneal electrical stimulation (6 Hz, 0.2 ms rectangular pulse width, 3 s duration, 44 mA) and are characterized by stun, twitching of the vibrissae, forelimb clonus, and Straub tail. […] Stimulated mice with a seizure duration shorter than 27 seconds were thus considered to be protected. […] Besides, this study provides another example of the translation of results from zebrafish to rodent seizure models.
Experimental procedure was described in Copmans et al. (2018) Neurochem. Int. 112, 124-133. before Buenafe et al. cited above; Orellana-Paucar cited above. In brief, NMRI mice (average weight 28 g, range 23-32 g) were randomly divided into control and treatment groups (n=5-10). 50 μL (injection volume was adjusted to the individual weight) of VHC (PEG200:DMSO:water; 0.25:0.25:0.5) or treatment (an ASD or test compound dissolved in VHC) was i.p. injected in mice and after 30 or 120 (in case of phenytoin, as reported by Barton et al. cited above) min psychomotor seizures were induced by low frequency, long duration corneal electrical stimulation (6 Hz, 0.2 ms rectangular pulse width, 3 s duration, 44 mA) using an ECT Unit 5780 (Ugo Basile, Comerio, Italy). Mice were manually restrained and a drop of ocular anesthetic (0.5% lidocaine) was applied to the corneas before stimulation. Following electrical current stimulation, the mouse was released in a transparent cage for behavioral observation, which was video-recorded. […] In addition, facial and mouth jerking as well as head nodding were observed occasionally. Mice displaying normal exploratory and locomotion behavior within a time period of 26 seconds were considered to be protected against the induced psychomotor seizures. Seizure durations were measured during the experiment by experienced researchers, familiar with the different seizure behaviors. In addition, seizure durations were determined by blinded video analysis to confirm or correct the initial observations. Data are expressed as mean±SD.

[2] = test system: PTZ-induced epileptiform brain activity in zebrafish larvae; assay: Zebrafish PTZ seizure model, local field potential recordings (electrophysiology); format: in vivo, Danio rerio; conditions: vs VHC+PTZ
Description: To determine whether azaspirofuran A and pseurotin A2 can ameliorate the PTZ-induced hyperexcitable state of the brain that is characterized by epileptiform discharges, local field potential (LFP) recordings were non-invasively measured from the midbrain (optic tectum) of zebrafish larvae [Zdebik et al. (2013) PLoS One 8, e79765; Britton et al. (2016) In Electroencephalography (EEG): An Introductory Text and Atlas of Normal and Abnormal Findings in Adults, Children, and Infants (St. Louis and Frey, Eds.), Chicago]. To that end larvae were treated with either VHC or test compound (MTC and optimal incubation time were used) followed by a 15 min during exposure to PTZ or VHC prior to the electrophysiology measurements (FIG. 4). […] Thus, both compounds not only ameliorate PTZ-induced seizures but are likely to do so by lowering the PTZ-induced hyperexcitable state of the brain.
Experimental procedure was described before [Zdebik et al. (2013) PLoS One 8, e79765; Sourbron et al. (2017) Front. Pharmac. 8, 191; Copmans et al. (2018) Neurochem. Int. 112, 124-133.]. Non-invasive LFP recordings were measured from the midbrain (optic tectum) of 7 dpf zebrafish larvae pre-incubated with VHC only, PTZ only, compound and VHC, or compound and PTZ. Larvae were incubated for approximately 2 or 18 hours with VHC (1% DMSO) or compound (1% DMSO) in a 100 μL volume. After incubation, 100 μL of VHC (embryo medium) or 40 mM PTZ (dissolved in embryo medium, 20 mM working concentration) was added to the well for 15 min prior to recording. These steps occurred at 28° C., while further manipulation and electrophysiological recordings occurred at room temperature (21° C.). The larva was embedded in 2% low melting point agarose (Invitrogen) and the signal electrode (an electrode inside a soda-glass pipet (1412227, Hilgenberg) pulled with a DMZ Universal Puller (Zeitz, Germany), diameter±20 microns, containing artificial cerebrospinal fluid (ACSF: 124 mM NaCl, 10 mM glucose, 2 mM KCl, 2 mM MgSO4, 2 mM CaCl2, 1.25 mM KH2PO4, and 26 mM NaHCO3, 300-310 mOsmols)) was positioned on the skin covering the optic tectum. A differential extracellular amplifier (DAGAN, USA) amplified the voltage difference between the signal (measured by the signal electrode) and the reference electrode. The differential signal was band pass filtered at 0.3-300 Hz and digitized at 2 kHz via a PCI-6251 interface (National instruments, UK) using WinEDR (John Dempster, University of Strathclyde, UK). A grounding electrode grounded the electrical system. All electrodes were connected with ACSF. Each recording lasted 600 seconds. Manual analysis was completed by quantification of the number, cumulative duration, and mean duration of epileptiform-like events with Clampfit 10.2 software (Molecular Devices Corporation, USA). An electrical discharge was considered epileptiform if it was a poly-spiking event comprising at least 3 spikes with a minimum amplitude of three times the baseline amplitude and a duration of at least 100 milliseconds. Data are expressed as mean±SD for the number and cumulative duration of epileptiform events and as mean±SEM for the mean duration of events.

[3] = MTC and optimal incubation time, 10 min recording

Compound	PTZ-induced seizures (seizure-like behavior) [1]	MTC (maximum tolerated concentration) (zebrafish larvae)	other results
11-O-methylpseurotin A	less pronounce reduction in PTZ-induced seizures	100 µg/mL	PTZ-induced seizures (seizure-like behavior) ([1]; listed as 11-Omethylpseurotin A): not active
CC/C=C\C(OC(=O)c1ccccc1N)C(O)C1=C(C)C(=O)C2(O1)C(=O)NC(OC)(C(=O)c1ccccc1)C2O (centres unmarked) [11-anthranilyl-Pseurotin A]	less pronounce reduction in PTZ-induced seizures	100 µg/mL	
CCc1ccc(C2=C(C)C(=O)[C@]3(O2)C(=O)N[C@@](O)(C(=O)c2ccccc2)[C@@H]3O)o1 [azaspirofuran B]		12.5 µg/mL	
O=C1NC(=O)C(c2ccccc2)(c2ccccc2)N1 [phenytoin, reference compound]			response of seizures (NMRI mice; 10 mg/kg i.p., 120 min before electrical stimulation): limited non-significant response
CC/C=C\[C@H](O)[C@H](O)C1=C(C)C(=O)[C@]2(O1)C(=O)N[C@@](OC)(C(=O)c1ccccc1)[C@@H]2O [pseurotin A]	not active	100 µg/mL	mean duration of epileptiform events ([2]; 100 μg/mL, 18 hours): significantly lower the mean duration; cumulative duration of epileptiform events [2, 3]: non-significantly lower; number of epileptiform events [2, 3]: non-significantly lower
CCC(O)C=C[C@H](O)C1=C(C)C(=O)[C@]2(O1)C(=O)N[C@@](OC)(C(=O)c1ccccc1)[C@@H]2O (some centres unmarked) [pseurotin D]	less pronounce reduction in PTZ-induced seizures; also recorded: not active	100 µg/mL	
CC/C=C\[C@H](O)[C@H](O)C1=C(C)C(=O)[C@]2(O1)C(=O)N[C@](O)(C(=O)c1ccccc1)[C@@H]2O [pseurotin F1]	less pronounce reduction in PTZ-induced seizures	50 µg/mL	
CCCC(CCC)C(=O)O [valproate, reference compound]			mean seizure duration (NMRI mice; 300 mg/kg i.p., 30 min before electrical stimulation): 4 s

Source: patent publication US20200253929A1, “TREATMENT OF EPILEPSY” (priority 2017, published 2020)
